Source: the supplement of paper PMC10307832

How the values were obtained:
Experiment in all cases: relative viability (nuclei count vs DMSO), 5 days (fraction); higher = more cells survive
[1] = system: NCI-H322M
Outline: (§1)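 Relative viability equals treated-well nuclei counts divided by vehicle-well nuclei counts. Counts came from 4× images of lung cancer cell lines grown in 1536-well plates for 5 days after pin-tool dosing on the day after seeding. Dosing used one drug alone or a fixed anchor-drug dose plus five library-drug doses (not always all listed) in √10 steps, and values are medians of duplicate plates.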

[2] = system: SK-MES-1
Outline: as §1

[3] = system: NCI-H2085
Outline: as §1

[4] = system: NCI-H838
Outline: as §1

[5] = system: NCI-H1792
Outline: as §1

[6] = system: NCI-H2087
Outline: as §1

[7] = system: NCI-H1355
Outline: as §1

[8] = system: ABC-1
Outline: as §1

[9] = system: CAL-12T
Outline: as §1

[10] = system: LK-2
Outline: as §1

[11] = system: A-427
Outline: as §1

[12] = system: NCI-H1651
Outline: as §1

[13] = system: NCI-H2228
Outline: as §1

[14] = system: PC-3 [JPC-3]
Outline: as §1

[15] = system: NCI-H661
Outline: as §1

[16] = system: UMC-11
Outline: as §1

[17] = system: LCLC-97TM1
Outline: as §1

[18] = system: NCI-H358
Outline: as §1

[19] = system: NCI-H1395
Outline: as §1

[20] = system: NCI-H1915
Outline: as §1

[21] = system: H3255
Outline: as §1

[22] = system: PC-14
Outline: as §1

[23] = system: NCI-H1666
Outline: as §1

O=C(O)CCCCC(CCSCc1ccccc1)SCc1ccccc1 (stereo not given) [CPI-613] + CS(=O)(=O)N1CCN(Cc2cc3nc(-c4cccc5[nH]ncc45)nc(N4CCOCC4)c3s2)CC1 [Pictilisib] (partner 1 µM)
relative viability ([1]; first compound 5 µM): 0.511 | relative viability ([1]; first compound 15.81 µM): 0.426 | relative viability ([1]; first compound 50 µM): 0.496 | relative viability ([1]; first compound 158.11 µM): 0.469 | relative viability ([1]; first compound 500 µM): 0.53 | relative viability ([2]; first compound 5 µM): 0.368 | relative viability ([2]; first compound 15.81 µM): 0.314 | relative viability ([2]; first compound 50 µM): 0.363 | relative viability ([2]; first compound 158.11 µM): 0.399 | relative viability ([2]; first compound 500 µM): 0.371 | relative viability ([3]; first compound 5 µM): 0.505 | relative viability ([3]; first compound 15.81 µM): 0.492 | relative viability ([3]; first compound 50 µM): 0.4 | relative viability ([3]; first compound 158.11 µM): 0.383 | relative viability ([3]; first compound 500 µM): 0.343 | relative viability ([4]; first compound 5 µM): 0.483 | relative viability ([4]; first compound 15.81 µM): 0.289 | relative viability ([4]; first compound 50 µM): 0.392 | relative viability ([4]; first compound 158.11 µM): 0.299 | relative viability ([4]; first compound 500 µM): 0.0565 | relative viability ([5]; first compound 5 µM): 0.29 | relative viability ([5]; first compound 15.81 µM): 0.229 | relative viability ([5]; first compound 50 µM): 0.272 | relative viability ([5]; first compound 158.11 µM): 0.23 | relative viability ([5]; first compound 500 µM): 0.207 | relative viability ([6]; first compound 5 µM): 0.87 | relative viability ([6]; first compound 15.81 µM): 0.702 | relative viability ([6]; first compound 50 µM): 0.733 | relative viability ([6]; first compound 158.11 µM): 0.587 | relative viability ([6]; first compound 500 µM): 0.0127 | relative viability ([7]; first compound 5 µM): 0.417 | relative viability ([7]; first compound 15.81 µM): 0.389 | relative viability ([7]; first compound 50 µM): 0.374 | relative viability ([7]; first compound 158.11 µM): 0.29 | relative viability ([7]; first compound 500 µM): 0.0921 | relative viability ([8]; first compound 5 µM): 0.771 | relative viability ([8]; first compound 15.81 µM): 0.68 | relative viability ([8]; first compound 50 µM): 0.807 | relative viability ([8]; first compound 158.11 µM): 0.384 | relative viability ([8]; first compound 500 µM): 0.246 | relative viability ([9]; first compound 5 µM): 0.255 | relative viability ([9]; first compound 15.81 µM): 0.393 | relative viability ([9]; first compound 50 µM): 0.453 | relative viability ([9]; first compound 158.11 µM): 0.385 | relative viability ([9]; first compound 500 µM): 0.102 | relative viability ([10]; first compound 5 µM): 0.583 | relative viability ([10]; first compound 15.81 µM): 0.494 | relative viability ([10]; first compound 50 µM): 0.535 | relative viability ([10]; first compound 158.11 µM): 0.554 | relative viability ([10]; first compound 500 µM): 0.472 | relative viability ([11]; first compound 5 µM): 0.742 | relative viability ([11]; first compound 15.81 µM): 0.696 | relative viability ([11]; first compound 50 µM): 0.66 | relative viability ([11]; first compound 158.11 µM): 0.613 | relative viability ([11]; first compound 500 µM): 0.737 | relative viability ([12]; first compound 5 µM): 0.591 | relative viability ([12]; first compound 15.81 µM): 0.504 | relative viability ([12]; first compound 50 µM): 0.572 | relative viability ([12]; first compound 158.11 µM): 0.331 | relative viability ([12]; first compound 500 µM): 0.0986 | relative viability ([13]; first compound 5 µM): 0.429 | relative viability ([13]; first compound 15.81 µM): 0.382 | relative viability ([13]; first compound 50 µM): 0.596 | relative viability ([13]; first compound 158.11 µM): 0.374 | relative viability ([13]; first compound 500 µM): 0.0181 | relative viability ([14]; first compound 5 µM): 0.683 | relative viability ([14]; first compound 15.81 µM): 0.617 | relative viability ([14]; first compound 50 µM): 0.656 | relative viability ([14]; first compound 158.11 µM): 0.636 | relative viability ([14]; first compound 500 µM): 0.404 | relative viability ([15]; first compound 5 µM): 0.36 | relative viability ([15]; first compound 15.81 µM): 0.428 | relative viability ([15]; first compound 50 µM): 0.442 | relative viability ([15]; first compound 158.11 µM): 0.355 | relative viability ([15]; first compound 500 µM): 0.367 | relative viability ([16]; first compound 5 µM): 0.804 | relative viability ([16]; first compound 15.81 µM): 0.698 | relative viability ([16]; first compound 50 µM): 0.496 | relative viability ([16]; first compound 158.11 µM): 0.642 | relative viability ([16]; first compound 500 µM): 0.104 | relative viability ([17]; first compound 5 µM): 0.191 | relative viability ([17]; first compound 15.81 µM): 0.164 | relative viability ([17]; first compound 50 µM): 0.174 | relative viability ([17]; first compound 158.11 µM): 0.192 | relative viability ([17]; first compound 500 µM): 0.0531 | relative viability ([18]; first compound 5 µM): 0.355 | relative viability ([18]; first compound 15.81 µM): 0.292 | relative viability ([18]; first compound 50 µM): 0.278 | relative viability ([18]; first compound 158.11 µM): 0.255 | relative viability ([18]; first compound 500 µM): 0.0276 | relative viability ([19]; first compound 5 µM): 0.623 | relative viability ([19]; first compound 15.81 µM): 0.782 | relative viability ([19]; first compound 50 µM): 0.619 | relative viability ([19]; first compound 158.11 µM): 0.645 | relative viability ([19]; first compound 500 µM): 0.51 | relative viability ([20]; first compound 5 µM): 0.988 | relative viability ([20]; first compound 15.81 µM): 0.719 | relative viability ([20]; first compound 50 µM): 0.908 | relative viability ([20]; first compound 158.11 µM): 0.927 | relative viability ([20]; first compound 500 µM): 0.503 | relative viability ([21]; first compound 5 µM): 0.512 | relative viability ([21]; first compound 15.81 µM): 0.462 | relative viability ([21]; first compound 50 µM): 0.452 | relative viability ([21]; first compound 158.11 µM): 0.472 | relative viability ([21]; first compound 500 µM): 0.43 | relative viability ([22]; first compound 5 µM): 0.747 | relative viability ([22]; first compound 15.81 µM): 0.677 | relative viability ([22]; first compound 50 µM): 0.637 | relative viability ([22]; first compound 158.11 µM): 0.725 | relative viability ([22]; first compound 500 µM): 0.526 | relative viability ([23]; first compound 5 µM): 0.512 | relative viability ([23]; first compound 15.81 µM): 0.351 | relative viability ([23]; first compound 50 µM): 0.404 | relative viability ([23]; first compound 158.11 µM): 0.15 | relative viability ([23]; first compound 500 µM): 0.0576
